In ChEMBL document CHEMBL3992494, “Amaryllidaceae alkaloids with new framework types from Zephyranthes candida as potent acetylcholinesterase inhibitors” (Eur J Med Chem, 2017):
Calls of active or inactive are those of the source. The rule behind the calls is not given here.

Assays:
[1] = molecular target: Acetylcholinesterase (Electrophorus electricus) (UniProt O42275); assay: Inhibition of electric eel AChE at 200 uM using acetylthiocholine iodide as substrate measured every minute for fifteen minutes by Ellman's method
[2] = molecular target: Acetylcholinesterase (Electrophorus electricus, UniProt O42275); assay: Inhibition of electric eel AChE using acetylthiocholine iodide as substrate measured every minute for fifteen minutes by Ellman's method
Chain of Acetylcholinesterase (O42275 whole entry): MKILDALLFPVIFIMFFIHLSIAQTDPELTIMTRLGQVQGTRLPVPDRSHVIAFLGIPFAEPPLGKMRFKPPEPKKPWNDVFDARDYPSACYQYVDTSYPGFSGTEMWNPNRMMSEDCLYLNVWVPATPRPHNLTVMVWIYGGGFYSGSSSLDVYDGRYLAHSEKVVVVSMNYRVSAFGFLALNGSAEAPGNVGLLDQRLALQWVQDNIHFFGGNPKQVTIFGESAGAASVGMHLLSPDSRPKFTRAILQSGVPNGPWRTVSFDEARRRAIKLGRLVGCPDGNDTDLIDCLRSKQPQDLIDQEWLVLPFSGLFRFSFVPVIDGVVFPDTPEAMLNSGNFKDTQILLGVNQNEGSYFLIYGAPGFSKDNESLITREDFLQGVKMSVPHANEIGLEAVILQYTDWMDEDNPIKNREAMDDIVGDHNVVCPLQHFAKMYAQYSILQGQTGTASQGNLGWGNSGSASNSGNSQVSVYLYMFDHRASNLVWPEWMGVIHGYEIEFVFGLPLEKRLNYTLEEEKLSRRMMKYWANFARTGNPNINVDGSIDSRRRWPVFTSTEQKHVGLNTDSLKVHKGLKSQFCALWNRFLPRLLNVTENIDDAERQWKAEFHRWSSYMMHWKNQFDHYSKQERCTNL

Chain of Acetylcholinesterase (Electrophorus electricus) (O42275 24-633 limits assumed): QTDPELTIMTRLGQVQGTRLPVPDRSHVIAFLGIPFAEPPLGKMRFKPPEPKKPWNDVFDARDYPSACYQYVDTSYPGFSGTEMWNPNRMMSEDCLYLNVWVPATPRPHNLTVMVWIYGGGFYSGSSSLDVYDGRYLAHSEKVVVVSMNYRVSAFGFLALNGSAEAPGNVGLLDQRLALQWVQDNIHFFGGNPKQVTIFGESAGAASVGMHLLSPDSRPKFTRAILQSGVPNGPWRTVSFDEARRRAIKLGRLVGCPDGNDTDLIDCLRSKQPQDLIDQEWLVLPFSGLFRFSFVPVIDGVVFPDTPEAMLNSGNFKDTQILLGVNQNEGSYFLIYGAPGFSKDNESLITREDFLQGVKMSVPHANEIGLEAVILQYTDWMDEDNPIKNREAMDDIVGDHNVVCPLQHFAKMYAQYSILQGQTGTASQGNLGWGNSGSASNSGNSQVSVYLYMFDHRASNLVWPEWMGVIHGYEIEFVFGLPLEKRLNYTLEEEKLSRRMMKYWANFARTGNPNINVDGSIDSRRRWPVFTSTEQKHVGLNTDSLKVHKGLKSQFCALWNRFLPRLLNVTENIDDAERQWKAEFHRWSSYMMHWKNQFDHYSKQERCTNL

Compound | inhibition [1] | IC50 [2]
COc1cc([C@@H]2[C@H](O)CC=C3CCN(C)[C@H]32)cc(OC)c1OC | inactive | 
CO[C@H]1C=C[C@@]2(c3ccc(O)cc3)CCN[C@H]2C1 | inactive | 
CNc1ccc(COC)cc1-c1cc2c(cc1CO)OCO2 |  | 8.82 µM
